Laboratory results from patent publication US20250276983A1, “COMPOUNDS AND METHODS FOR MODULATING HER2” (IAMBIC THERAPEUTICS, INC., priority 2022, published 2025).
pIC50: −log10 of the molar value.

What was measured:
wtEGFR = wtEGFR (Homo sapiens (Human), UniProt P00533); assay: HotSpot radiometric kinase activity assay, wtEGFR; type: biochemical; conditions: 4 nM wtEGFR, 10 μM 33P-ATP, 20 min preincubation, 2 hours, read-out: EGFR WT IC50
Description: (§1) The purpose of the wtERBB2, ERBB2-A775_G776insYVMA (ERBB2YVMA), wtEGFR biochemical assay was to evaluate the inhibition (% inhibition and IC50 values) of the small molecule inhibitors by using the “HotSpot” radiometric kinase activity assay. HotSpot assays monitor the […] of kinase substrate by the radioactive gamma phosphate of adenosine triphosphate (33P-ATP) during biochemical reactions. HotSpot assays was performed in steps upon completion of the kinase reaction: deposition of a reaction mixture aliquot onto P81 ion exchange paper, extensive washing of the aforementioned P81 paper using phosphoric acid to remove unbound radiolabeled 33P-ATP from the P81 paper, and finally visualization and quantification of the dried P81 paper utilizing a phosphoimager. […] Typical reaction solutions (10 μL final reaction volume) contained the following buffer conditions: 20 mM Hepes (pH 7.5), 10 mM MgCl2, 1 mM EGTA, 0.01% Brij35, 0.02 mg/mL BSA, 0.1 mM Na3VO4, 2 mM DTT, 1% DMSO. The assay was primed by preparing a fresh 0.2 mg/mL solution of pEY (Sigma Cat: P7244) substrate in the reaction buffer and supplementing that solution with […] of MnCl2 as substrate cofactor (Sigma Cat: M9522). The kinase of interest was then added to the solution at the appropriate concentration (30 nM wtERBB2 from, or 20 nM ERBB2YVMA, or 4 nM wtEGFR) and gently mixed prior to delivery of compound in 100% DMSO by acoustic dispensing (Beckman Echo550). Compound, Kinase, and substrate were allowed to incubate for 20 min at room temperature prior to the initiation of the reaction by addition of 33P-ATP (PerkinElmer Cat: NEG602, final conc 10 μM). […] IC50 determinations were made from a plot of kinase activity as a function of inhibitor concentration fit to the 4-parameter IC50 equation with the enzyme concentration held constant using GraphPad Prism (San Diego).

wtERBB2 = wtERBB2 (Homo sapiens (Human), UniProt P04626); assay: HotSpot radiometric kinase activity assay, wtERBB2; type: biochemical; conditions: 30 nM wtERBB2, 10 μM 33P-ATP, 20 min preincubation, 2 hours, read-out: HER2 WT IC50
Sequence of wtERBB2 (P04626 23-1255): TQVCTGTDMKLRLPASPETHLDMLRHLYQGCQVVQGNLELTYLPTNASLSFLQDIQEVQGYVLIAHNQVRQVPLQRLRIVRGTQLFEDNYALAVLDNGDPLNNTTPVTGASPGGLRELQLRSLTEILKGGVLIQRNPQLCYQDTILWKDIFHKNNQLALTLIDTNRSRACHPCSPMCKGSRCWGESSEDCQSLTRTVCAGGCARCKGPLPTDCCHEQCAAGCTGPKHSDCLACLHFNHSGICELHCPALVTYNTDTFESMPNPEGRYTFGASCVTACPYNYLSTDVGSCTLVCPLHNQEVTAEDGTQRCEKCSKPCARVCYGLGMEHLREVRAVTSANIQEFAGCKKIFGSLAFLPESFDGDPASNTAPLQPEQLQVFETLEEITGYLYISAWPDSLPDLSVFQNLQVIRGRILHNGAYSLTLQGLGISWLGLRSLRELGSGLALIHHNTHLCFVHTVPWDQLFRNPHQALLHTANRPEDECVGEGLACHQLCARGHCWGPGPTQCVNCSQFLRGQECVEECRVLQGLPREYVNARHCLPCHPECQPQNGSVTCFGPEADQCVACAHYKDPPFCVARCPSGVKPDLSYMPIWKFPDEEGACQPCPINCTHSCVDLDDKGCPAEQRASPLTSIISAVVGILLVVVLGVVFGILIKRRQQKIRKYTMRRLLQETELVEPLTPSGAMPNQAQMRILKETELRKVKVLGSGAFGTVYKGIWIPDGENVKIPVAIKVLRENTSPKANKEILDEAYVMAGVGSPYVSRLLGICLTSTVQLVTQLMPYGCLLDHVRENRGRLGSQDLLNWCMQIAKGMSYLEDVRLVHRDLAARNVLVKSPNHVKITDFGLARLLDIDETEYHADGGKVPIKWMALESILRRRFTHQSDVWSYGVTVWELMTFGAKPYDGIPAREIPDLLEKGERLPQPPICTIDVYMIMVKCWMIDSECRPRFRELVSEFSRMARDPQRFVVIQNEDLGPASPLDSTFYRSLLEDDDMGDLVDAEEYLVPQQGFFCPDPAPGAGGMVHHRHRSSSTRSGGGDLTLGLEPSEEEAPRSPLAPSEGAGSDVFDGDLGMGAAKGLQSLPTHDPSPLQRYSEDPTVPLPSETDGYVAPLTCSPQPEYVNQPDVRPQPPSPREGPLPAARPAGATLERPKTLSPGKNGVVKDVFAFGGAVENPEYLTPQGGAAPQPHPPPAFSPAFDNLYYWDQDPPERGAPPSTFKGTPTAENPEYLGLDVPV
Description: as §1

BaF3_HER2WT cells = assay: Cell growth inhibition assay, BaF3_HER2WT; type: cell-based; conditions: 72 h, 3 days treatment, CellTiterGlo 2.0, read-out: HER2 WT IC50 (nM), cell growth inhibition
BaF3_HER2YVMA cells = assay: Cell growth inhibition assay, BaF3_HER2YVMA; type: cell-based; conditions: 72 h, BaF3_HER2YVMA cells, 3 days treatment, CellTiterGlo 2.0; read-out: HER2-YVMA IC50 (nM), cell growth inhibition
BaF3_EGFRWT cells = assay: Cell growth inhibition assay, BaF3_EGFRWT; type: cell-based; conditions: 72 h, 80 ng/mL recombinant human EGF, 3 days treatment, CellTiterGlo 2.0, read-out: EGFR WT IC50 (nM), cell growth inhibition

Sequence of wtEGFR (P00533 25-1210): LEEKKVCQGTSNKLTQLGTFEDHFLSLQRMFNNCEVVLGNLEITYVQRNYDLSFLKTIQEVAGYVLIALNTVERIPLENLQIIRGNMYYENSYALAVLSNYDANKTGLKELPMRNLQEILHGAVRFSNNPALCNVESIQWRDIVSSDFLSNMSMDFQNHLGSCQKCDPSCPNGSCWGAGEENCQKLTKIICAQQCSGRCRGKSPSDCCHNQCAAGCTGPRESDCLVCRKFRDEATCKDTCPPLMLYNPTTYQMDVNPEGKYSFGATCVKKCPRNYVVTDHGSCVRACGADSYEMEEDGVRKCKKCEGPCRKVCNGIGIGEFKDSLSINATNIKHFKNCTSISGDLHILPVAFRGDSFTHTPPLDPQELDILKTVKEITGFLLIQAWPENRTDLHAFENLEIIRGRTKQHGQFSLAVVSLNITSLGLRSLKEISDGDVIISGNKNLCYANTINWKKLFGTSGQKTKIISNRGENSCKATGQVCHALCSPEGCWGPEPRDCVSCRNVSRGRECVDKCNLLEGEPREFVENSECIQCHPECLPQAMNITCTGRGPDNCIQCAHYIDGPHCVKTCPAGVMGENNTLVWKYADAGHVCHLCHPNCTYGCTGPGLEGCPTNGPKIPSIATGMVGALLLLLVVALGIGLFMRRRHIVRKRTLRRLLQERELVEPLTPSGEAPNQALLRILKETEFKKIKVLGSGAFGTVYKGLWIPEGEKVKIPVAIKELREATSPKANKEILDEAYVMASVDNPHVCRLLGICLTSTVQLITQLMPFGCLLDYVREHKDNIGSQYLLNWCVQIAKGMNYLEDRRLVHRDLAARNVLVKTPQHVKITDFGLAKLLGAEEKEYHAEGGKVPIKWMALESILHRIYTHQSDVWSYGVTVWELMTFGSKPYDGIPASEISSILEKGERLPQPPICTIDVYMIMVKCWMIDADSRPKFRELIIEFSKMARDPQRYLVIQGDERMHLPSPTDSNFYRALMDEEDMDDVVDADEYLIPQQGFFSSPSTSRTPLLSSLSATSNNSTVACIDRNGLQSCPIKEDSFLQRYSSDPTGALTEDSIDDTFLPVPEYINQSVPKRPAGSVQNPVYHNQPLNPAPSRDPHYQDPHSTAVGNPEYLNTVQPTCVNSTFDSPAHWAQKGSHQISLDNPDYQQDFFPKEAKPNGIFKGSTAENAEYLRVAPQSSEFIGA

| Structure (SMILES) | pIC50 (wtEGFR) | pIC50 (wtERBB2) | IC50 (BaF3_HER2WT cells) | IC50 (BaF3_HER2YVMA cells) | IC50 (BaF3_EGFRWT cells) |
| --- | --- | --- | --- | --- | --- |
| Cc1cc(Nc2ncnn3ccc([C@@H]4CCCN(C(=O)/C=C/CN(C)C)CC4)c23)ccc1Oc1ccn2ncnc2c1 (single isomer, unassigned) [Example 109] | > 6.70 | > 6.70 | – | – | – |
| C=CC(=O)N1CCN(c2ccn3ncnc(Nc4ccc(Oc5ccn6ncnc6c5)c(C)c4)c23)CC1 [Example 6, 1-(4-(4-((4-([1,2,4]triazolo[1,5-a]pyridin-7-yloxy)-3-methylphenyl)amino)pyrrolo[2,1-f][1,2,4]triazin-5-yl)piperazin-1-yl)prop-2-en-1-one] | > 6.70 | > 6.70 | < 200 nM | < 200 nM | 500 to 1500 nM |
| Cc1cc(Nc2ncnn3ccc(C4CN(C(=O)/C=C/CN5CCCCC5)C4)c23)ccc1Oc1ccn2ncnc2c1 [Example 94, (E)-1-(3-(4-((4-([1,2,4]triazolo[1,5-a]pyridin-7-yloxy)-3-methylphenyl)amino)pyrrolo[2,1-f][1,2,4]triazin-5-yl)azetidin-1-yl)-4-(piperidin-1-yl)but-2-en-1-one] | > 6.70 | > 6.70 | < 200 nM | < 200 nM | 1500 to 5000 nM |
| C=CC(=O)N1CCC(c2ccn3ncnc(Nc4ccc(Oc5ccn6ncnc6c5)c(C)c4)c23)CC1 [Example 7, 1-(4-(4-((4-([1,2,4]triazolo[1,5-a]pyridin-7-yloxy)-3-methylphenyl)amino)pyrrolo[2,1-f][1,2,4]triazin-5-yl)piperidin-1-yl)prop-2-en-1-one] | > 6.70 | > 6.70 | < 200 nM | < 200 nM | 200 to 500 nM |
| C=CC(=O)N1CC(c2ccn(-c3ccn4ncnc(Nc5ccc(Oc6ccn7ncnc7c6)c(C)c5)c34)n2)C1 [Example 10, 1-(3-(1-(4-((4-([1,2,4]triazolo[1,5-a]pyridin-7-yloxy)-3-methylphenyl)amino)pyrrolo[2,1-f][1,2,4]triazin-5-yl)-1H-pyrazol-3-yl)azetidin-1-yl)prop-2-en-1-one] | > 6.70 | > 6.70 | 200 to 500 nM | 500 to 1500 nM | 1500 to 5000 nM |
| C=CC(=O)N1CCCC(c2ccn3ncnc(Nc4ccc(Oc5ccn6ncnc6c5)c(C)c4)c23)C1 (stereo not shown) [Example 12, 1-(3-(4-((4-([1,2,4]triazolo[1,5-a]pyridin-7-yloxy)-3-methylphenyl)amino)pyrrolo[2,1-f][1,2,4]triazin-5-yl)piperidin-1-yl)prop-2-en-1-one] | > 6.70 | > 6.70 | < 200 nM | < 200 nM | 1500 to 5000 nM |
| Cc1cc(Nc2ncnn3ccc([C@@H]4CCN(C(=O)/C=C/CN(C)C)C4)c23)ccc1Oc1ccn2ncnc2c1 (single isomer, unassigned) [Example 99] | > 6.70 | > 6.70 | – | – | – |
| Cc1cc(Nc2ncnn3ccc(C4CN(C(=O)/C=C/CN(C)C)C4)c23)ccc1Oc1ccn2ncnc2c1 [Example 1, (E)-1-(3-(4-((4-([1,2,4]triazolo[1,5-a]pyridin-7-yloxy)-3-methylphenyl)amino)pyrrolo[2,1-f][1,2,4]triazin-5-yl)azetidin-1-yl)-4-(dimethylamino)but-2-en-1-one] | > 6.70 | > 6.70 | < 200 nM | < 200 nM | 1500 to 5000 nM |
| C=CC(=O)N1CCC(c2ccn3ncnc(Nc4ccc(Oc5ccc6c(c5)ncn6C)c(C)c4)c23)CC1 [Example 113, 1-(4-(4-((3-methyl-4-((1-methyl-1H-benzo[d]imidazol-5-yl)oxy)phenyl)amino)pyrrolo[2,1-f][1,2,4]triazin-5-yl)piperidin-1-yl)prop-2-en-1-one] | > 6.70 | > 6.70 | < 200 nM | < 200 nM | 500 to 1500 nM |
| C=CC(=O)N1CC(n2cc(-c3ccn4ncnc(Nc5ccc(Oc6ccn7ncnc7c6)c(C)c5)c34)cn2)C1 [Example 2, 1-(3-(4-(4-((4-([1,2,4]triazolo[1,5-a]pyridin-7-yloxy)-3-methylphenyl)amino)pyrrolo[2,1-f][1,2,4]triazin-5-yl)-1H-pyrazol-1-yl)azetidin-1-yl)prop-2-en-1-one] | > 6.70 | > 6.70 | < 200 nM | < 200 nM | 1500 to 5000 nM |
| C=CC(=O)N1CCC[C@H](c2ccn3ncnc(Nc4ccc(Oc5ccn6ncnc6c5)c(C)c4)c23)CC1 [Example 112, (S)-1-(4-(4-((4-([1,2,4]triazolo[1,5-a]pyridin-7-yloxy)-3-methylphenyl)amino)pyrrolo[2,1-f][1,2,4]triazin-5-yl)azepan-1-yl)prop-2-en-1-one] | > 6.70 | > 6.70 | – | – | – |
| COC1CCN(C/C=C/C(=O)N2CCC(c3ccn4ncnc(Nc5ccc(Oc6ccc7c(c6)ncn7C)c(C)c5)c34)CC2)C1 (racemic) [Example 106, (E)-4-(3-methoxypyrrolidin-1-yl)-1-(4-(4-((3-methyl-4-((1-methyl-1H-benzo[d]imidazol-5-yl)oxy)phenyl)amino)pyrrolo[2,1-f][1,2,4]triazin-5-yl)piperidin-1-yl)but-2-en-1-one] | > 6.70 | – | – | – | 1500 to 5000 nM |
| Cc1cc(Nc2ncnn3ccc(C4CCCN(C(=O)/C=C/CN(C)C)CC4)c23)ccc1Oc1ccn2ncnc2c1 (stereo not shown) [Example 93, (E)-1-(4-(4-((4-([1,2,4]triazolo[1,5-a]pyridin-7-yloxy)-3-methylphenyl)amino)pyrrolo[2,1-f][1,2,4]triazin-5-yl)azepan-1-yl)-4-(dimethylamino)but-2-en-1-one] | – | > 6.70 | < 200 nM | < 200 nM | 1500 to 5000 nM |
| C=CC(=O)N1CC2(C1)CN(c1ccn3ncnc(Nc4ccc(Oc5ccn6ncnc6c5)c(C)c4)c13)C2 [Example 16, 1-(6-(4-((4-([1,2,4]triazolo[1,5-a]pyridin-7-yloxy)-3-methylphenyl)amino)pyrrolo[2,1-f][1,2,4]triazin-5-yl)-2,6-diazaspiro[3.3]heptan-2-yl)prop-2-en-1-one] | – | > 6.70 | 200 to 500 nM | 500 to 1500 nM | 1500 to 5000 nM |
| C=CC(=O)NCCn1cc(-c2ccn3ncnc(Nc4ccc(Oc5ccn6ncnc6c5)c(C)c4)c23)cn1 [Example 13, N-(2-(4-(4-((4-([1,2,4]triazolo[1,5-a]pyridin-7-yloxy)-3-methylphenyl)amino)pyrrolo[2,1-f][1,2,4]triazin-5-yl)-1H-pyrazol-1-yl)ethyl)acrylamide] | – | > 6.70 | < 200 nM | 200 to 500 nM | 1500 to 5000 nM |
| C=CC(=O)NC1CN(c2ccn3ncnc(Nc4ccc(Oc5ccn6ncnc6c5)c(C)c4)c23)C1 [Example 14, N-(1-(4-((4-([1,2,4]triazolo[1,5-a]pyridin-7-yloxy)-3-methylphenyl)amino)pyrrolo[2,1-f][1,2,4]triazin-5-yl)azetidin-3-yl)acrylamide] | – | > 6.70 | < 200 nM | < 200 nM | 1500 to 5000 nM |
| Cc1cc(Nc2ncnn3ccc(C(=O)NCCCN(C)C)c23)ccc1Oc1ccn2ncnc2c1 [Example 178, 4-((4-([1,2,4]triazolo[1,5-a]pyridin-7-yloxy)-3-methylphenyl)amino)-N-(3-(dimethylamino)-propyl)pyrrolo[2,1-f][1,2,4]triazine-5-carboxamide] | – | > 6.70 | 200 to 500 nM | 1500 to 5000 nM | > 5000 nM |
| C=CC(=O)N1CCC[C@@H](c2ccn3ncnc(Nc4ccc(Oc5ccn6ncnc6c5)c(C)c4)c23)CC1 (single isomer, unassigned) [Example 111] | > 6.70 | > 6.70 | – | – | – |
